Test results as given in patent publication US7381521B2, “Anti-pathogenic composition useful in blood preservation” (Altachem Pharma Ltd., priority 2001, dated 2008).

Legend:
[1] = system: human fibroblastic cells; experiment: Cytotoxicity check of the products on human fibroblastic cells; type: cell-based; conditions: 0.04% solution at a dilution of 10^−3; 0.1 ml in 1 ml medium; 3 days
Procedure: Cytotoxicity checks are conducted on the products for cellular cultures used in the tests, that is to say the human fibroblastic cells.
The cells are cultivated on a Dulbecco medium enriched with 10% fetal calf serum; at the moment of their use, the cells are washed and the same culture medium is used but without calf serum.
For each product tested or each composition, 10 tubes of cellular culture were used and after inoculation of the product, the tubes were kept under observation for 3 days.
Each product was, in succession, used pure and at dilutions of 10^−1, 10^−2, 10^−3 and added to culture tubes containing 1 ml of nutrient medium in a volume of 0.1 ml.

[2] = system: AgHBs; experiment: In vitro degradation of the antigen of hepatitis B virus (AgHBs), virocide + human serum of a hepatitis B patient; type: biochemical; conditions: Bardac 0.2%
Description: Action on In Vitro Degradation of the Antigen of Hepatitis B Virus (AgHBs) of the Hepatitis B Virus: Virocide+Human Serum Taken from a Patient with Hepatitis B ( 1/1000th)

[3] = system: E. coli ATCC 11229; experiment: Test 2 (DGHM), action as a function of disinfection time at 22° C., 2 × 10^9 organisms/ml; type: cell-based, Escherichia coli
Procedure: (§1) Another test was carried out a basis of the following solutions • 100 ml of a 0.1% solution of chlorohexidine digluconate (pH 6); and • 100 ml of a 0.1% solution of Bardac22®.
(§2) The activity of these solutions, alone or in combination, was more particularly tested in respect of Staphylococcus aureus ATCC 6538, Escherichia coli ATCC 11229 and Candida albicans ATCC 10231.
(§3) The tests were conducted in accordance with the procedure described in Chapter I/2.1 and 2.2 of Tichtlinien für die Prüfung und Bewertung chemischer Desinfektionsverfahren der DGHM/Guidelines for Testing and Evaluating Chemical Disinfection Processes of DGHM as at 1.1, 1981.

[4] = system: herpes virus Hominis type 1, strain Bey (HSV1); experiment: Immediate virocidal action, zone-forming units on vero cells; type: cell-based; conditions: day 4, three culture dishes
[5] = system: S. aureus ATCC 6538; experiment: Test 2 (DGHM), action as a function of disinfection time at 22° C., 8 × 10^8 organisms/ml; type: cell-based, Staphylococcus aureus
Procedure: as §1, §2, §3

SMILES: CCCCCCCCCC[N+](C)(C)CCCCCCCCCC.[Cl-] [Bardac ®, didecyl dimethyl ammonium chloride]
- toxicity for the cell cultures [1]: not toxic
- Residual AgHBs (ratio) [2]: 1.35
- growth ([3]; 0.05% vol/vol, 1 min): +
- growth ([3]; 0.05% vol/vol, 3 min): +
- growth ([3]; 0.05% vol/vol, 5 min): +
- growth ([3]; 0.05% vol/vol, 15 min): +
- growth ([3]; 0.05% vol/vol, 30 min): +
- growth ([3]; 0.05% vol/vol, 60 min): +
- growth ([3]; 0.1% vol/vol, 1 min): +
- growth ([3]; 0.1% vol/vol, 3 min): +
- growth ([3]; 0.1% vol/vol, 5 min): +
- growth ([3]; 0.1% vol/vol, 15 min): +
- growth ([3]; 0.1% vol/vol, 30 min): +
- growth ([3]; 0.1% vol/vol, 60 min): +
- growth ([3]; 0.5% vol/vol, 1 min): +
- growth ([3]; 0.5% vol/vol, 3 min): +
- growth ([3]; 0.5% vol/vol, 5 min): +
- growth ([3]; 0.5% vol/vol, 15 min): +
- growth ([3]; 0.5% vol/vol, 30 min): +
- growth ([3]; 0.5% vol/vol, 60 min): +
- growth ([3]; 1% vol/vol, 1 min): +
- growth ([3]; 1% vol/vol, 3 min): +
- growth ([3]; 1% vol/vol, 5 min): +
- growth ([3]; 1% vol/vol, 15 min): +
- growth ([3]; 1% vol/vol, 30 min): +
- growth ([3]; 1% vol/vol, 60 min): +
- growth ([3]; 5% vol/vol, 1 min): +
- growth ([3]; 5% vol/vol, 3 min): +
- growth ([3]; 5% vol/vol, 5 min): +
- growth ([3]; 5% vol/vol, 15 min): −
- growth ([3]; 5% vol/vol, 30 min): −
- growth ([3]; 5% vol/vol, 60 min): −
- growth ([3]; 10% vol/vol, 1 min): +
- growth ([3]; 10% vol/vol, 3 min): +
- growth ([3]; 10% vol/vol, 5 min): −
- growth ([3]; 10% vol/vol, 15 min): −
- growth ([3]; 10% vol/vol, 30 min): −
- growth ([3]; 10% vol/vol, 60 min): −
- growth ([3]; 25% vol/vol, 1 min): −
- growth ([3]; 25% vol/vol, 3 min): −
- growth ([3]; 25% vol/vol, 5 min): −
- growth ([3]; 25% vol/vol, 15 min): −
- growth ([3]; 25% vol/vol, 30 min): −
- growth ([3]; 25% vol/vol, 60 min): −
- Number of zone-forming units per milliliter of virus diluted to 10^−4 ([4]; Bardac 0.02%): 30/125/45
- Number of zone-forming units per milliliter of virus diluted to 10^−4 ([4]; Bardac, concentration not given, second series (control virus at 10^−6)): 26/17/20
- growth ([5]; 0.05% vol/vol, 1 min): +
- growth ([5]; 0.05% vol/vol, 3 min): +
- growth ([5]; 0.05% vol/vol, 5 min): +
- growth ([5]; 0.05% vol/vol, 15 min): +
- growth ([5]; 0.05% vol/vol, 30 min): +
- growth ([5]; 0.05% vol/vol, 60 min): +
- growth ([5]; 0.1% vol/vol, 1 min): +
- growth ([5]; 0.1% vol/vol, 3 min): +
- growth ([5]; 0.1% vol/vol, 5 min): +
- growth ([5]; 0.1% vol/vol, 15 min): +
- growth ([5]; 0.1% vol/vol, 30 min): +
- growth ([5]; 0.1% vol/vol, 60 min): +
- growth ([5]; 0.5% vol/vol, 1 min): +
- growth ([5]; 0.5% vol/vol, 3 min): +
- growth ([5]; 0.5% vol/vol, 5 min): +
- growth ([5]; 0.5% vol/vol, 15 min): +
- growth ([5]; 0.5% vol/vol, 30 min): +
- growth ([5]; 0.5% vol/vol, 60 min): +
- growth ([5]; 1% vol/vol, 1 min): +
- growth ([5]; 1% vol/vol, 3 min): +
- growth ([5]; 1% vol/vol, 5 min): +
- growth ([5]; 1% vol/vol, 15 min): +
- growth ([5]; 1% vol/vol, 30 min): −
- growth ([5]; 1% vol/vol, 60 min): −
- growth ([5]; 5% vol/vol, 1 min): +
- growth ([5]; 5% vol/vol, 3 min): +
- growth ([5]; 5% vol/vol, 5 min): +
- growth ([5]; 5% vol/vol, 15 min): −
- growth ([5]; 5% vol/vol, 30 min): −
- growth ([5]; 5% vol/vol, 60 min): −
- growth ([5]; 10% vol/vol, 1 min): +
- growth ([5]; 10% vol/vol, 3 min): −
- growth ([5]; 10% vol/vol, 5 min): −
- growth ([5]; 10% vol/vol, 15 min): −
- growth ([5]; 10% vol/vol, 30 min): −
- growth ([5]; 10% vol/vol, 60 min): −
- growth ([5]; 25% vol/vol, 1 min): +
- growth ([5]; 25% vol/vol, 3 min): −
- growth ([5]; 25% vol/vol, 5 min): −
- growth ([5]; 25% vol/vol, 15 min): −
- growth ([5]; 25% vol/vol, 30 min): −
- growth ([5]; 25% vol/vol, 60 min): −
